Values joined by “and” are separate entries in the source; they are usually repeats but may differ in a detail not shown here. Equal values may be shown once. Where a SMILES comes first, the peptide text is derived from it. Bridges are numbered along the chain shown (N, C = ends). [ ]: non-standard residue; d: D form. Ala(cPent) = N[C@@H](CC1CCCC1)C(=O)O; AllylGly = C=CC[C@H](N)C(=O)O
Legend:
Sprague-Dawley rats [1] = test: Tail-flick test (acute thermal pain), intrathecal injection; format: in vivo, rat; details: for ED50, tail-flick test: from % MPE at 10 min post-injection, rat; for tail-flick latency time compared to saline injection: i.t. 10 to 150 μg/kg (compound 34) or 3 to 61 nmol/kg (compound 67); for % MPE: 10 min post-injection
Protocol: (§1) Rats were housed two per cage on Aspen shavings in a quiet room and kept on a 12 h light/dark cycle and allowed ad libitum access to food and water. The experimental procedures in this study were approved by the Animal Care Committee of Université de Sherbrooke and were in accordance with policies and directives of the Canadian Council on Animal Care.
Tail-flick test: The tail flick test was used as outcome measures heat-induced pain in animals and as indicators of a compound's analgesic efficacy.
Acute pain was assessed using the Tail flick test (Tail Flick Analgesia meterV2.00, Colombus Instruments, Columbus, Ohio, USA). Tail flick test measures sensitivity to a high-intensity light beam focused on the rat tail. The tail flick apparatus was set at a light intensity of 6 and a cutoff of 10 seconds. The latency to flick the tail out of the path of the light beam corresponds to the measure of pain sensitivity or analgesia.
Before testing, animals were individually acclimatized to manipulations and behavioral apparatus 5 min/day for three consecutive days. On the test day, latencies baseline measures were taken before drug injection to provide a mean baseline. The compounds were diluted in 0.9% saline at the desired dose. The effects of the compound or saline on thermal nociception were assessed every 10 min for up to 60 min following i.t. administration.
Moreover, tail flick latencies were converted into the percent maximal possible effect (% MPE) at the time of maximal peak of analgesia. % MPE were calculated according to the following formula: % MPE=[(Test latency)−(Saline latency)]/[(Cutoff)−(Saline latency)]×100. Data are expressed as mean±SEM of 5-8 animals for each dose.
Then, ED50 values were determined using the dose-response stimulation log(agonist) vs response (four parameters).
Data are expressed as mean±standard errors of the mean (SEM). All graphs and statistical analysis were performed using GraphPad Prism™ 7 (GraphPad software, La Jolla, CA, USA). […] A two-way ANOVA followed by Tukey's multiple comparisons test was used to determine the significant differences in changes in body temperature between different concentrations of compounds and saline (FIG. 9). The % MPE for the tail-flick test and the areas under the curve for the formalin test were analyzed using a one-way ANOVA followed by a Dunnett's multiple comparisons test to compare different concentrations of compounds and saline treatment (FIGS. 2B, 4B, 7A-B and 8B-D). […] Nonlinear regression using three parameters was performed for % of ileum relaxation and IC50 value was obtained from the resulting dose-response curve (FIG. 11). A difference in response was considered significant with p-values *p<0.05, **p<0.01, ***p<0.001 and **p<0.0001.

Sprague-Dawley rats [2] = test: Formalin test (tonic pain model), intrathecal injection; format: in vivo, rat
Protocol: as §1, with “Experiments were performed with adults male Sprague-Dawley rats, weighing 225-300 g (Charles River laboratories, St Constant, Canada). Rats” for “Rats”
Rats were lightly anesthetized with isoflurane/oxygen (Baxter corporation, Mississauga, ON, Canada; 2 L/min) flow and injected intrathecally at the L5-L6 intervertebral space with concentrations ranging from 10 to 150 μg/kg of compound 34, 30 μg/kg of PD149163 or 61 nmol/kg of compounds 60, 67, 91 and 116 diluted in 0.9% saline or 0.9% saline alone.
Formalin test: The analgesic effect of compound 34 was assessed using the formalin test as a model of persistent pain. Before testing, animals were acclimatized to manipulations and to plexiglass chambers 30 min/day for three consecutive days. On test day, 5 minutes after intrathecal injection of compounds at increasing doses ranging from 30 to 150 μg/kg (FIGS. 7A-B) or 3 to 60 μg/kg (FIGS. 8A-D), the rats received a 50 μl of diluted 1.85% formaldehyde (i.e. 5% formalin; Bioshop, Burlington, Ontario) into the plantar surface of the right hind paw. […] The intraplantar injection of formalin produced the biphasic nociceptive response typical of this tonic pain model (Tjolsen et al., 1992). […] Nociceptive behavior was assessed using a weighted score as described previously (Dubuisson and Dennis 1977; Codere, 1993). […] The weighted average pain intensity score ranging from 0 to 3 was then calculated by multiplying the time spent in each category by the category weight, summing these products, and dividing by the total time in a given time interval. The pain score was thus calculated from the following formula (1T1+2T2+3T3)/180 where T1, T2, and T3 are the durations (in seconds) spent in behavioral categories 1, 2, or 3, respectively, during each 180 second block. The Area Under the Curve (AUC) was calculated during all the duration of the test (0-60 min). […]
Data are expressed as mean±standard errors of the mean (SEM). […] The % MPE for the tail-flick test and the areas under the curve for the formalin test were analyzed using a one-way ANOVA followed by a Dunnett's multiple comparisons test to compare different concentrations of compounds and saline treatment (FIGS. 2B, 4B, 7A-B and 8B-D). […]

**Q.** How did the “tail-flick latency at the lowest dose” value (Sprague-Dawley rats [1]; 10 μg/kg i.t. (data not shown)) turn out when `CC(C)C[C@H](NC(=O)[C@H](Cc1ccc(O)cc1)NC(=O)[C@@H]1CC=CC[C@H](N)C(=O)N[C@@H](CCCCN)C(=O)N[C@@H](CCCCN)C(=O)N1)C(=O)O` [compound 34, c[G(All)KKG(All)]YL] (H-[AllylGly]KK[AllylGly]YL-OH; staple 1-4) was run?
**A.** no apparent increase in latency

**Q.** What about the “ED50, tail-flick test” value (Sprague-Dawley rats [1]; i.t.) of the same compound?
**A.** 48.52 μg/kg and 61 nmol/kg

**Q.** What about the “tail-flick latency time compared to saline injection” value (Sprague-Dawley rats [1]) of the same compound?
**A.** significantly increased

**Q.** What about the “% MPE” value (Sprague-Dawley rats [1]; tail-flick, two higher doses i.t.) of the same compound?
**A.** at least 98%

**Q.** And the “dose at which analgesic effect / MPE reached a plateau” value (Sprague-Dawley rats [1]; tail-flick, i.t.)?
**A.** around 90 μg/kg

**Q.** What about the “time spent in lifting” value (Sprague-Dawley rats [2]; acute phase, from 60 μg/kg i.t.) of the same compound?
**A.** significantly decreased

**Q.** What about the “time spent in lifting” value (Sprague-Dawley rats [2]; inflammatory phase, from 90 μg/kg i.t.) of the same compound?
**A.** significantly decreased

**Q.** How did the “latency of the tail-flick reflex compared to baseline” value (Sprague-Dawley rats [1]; 61 nmol/kg i.t.) turn out when `NCCCC[C@@H]1NC(=O)[C@H](CCCCN)NC(=O)[C@@H](N)CC=CC[C@@H](C(=O)N[C@@H](Cc2ccc(O)cc2)C(=O)N[C@@H](CC2CCCC2)C(=O)O)NC1=O` [compound 67, c[G(All)KKG(All)]YA(cyclopentyl)] (H-[AllylGly]KK[AllylGly]Y[Ala(cPent)]-OH; staple 1-4) was run?
**A.** sustainably increased latency

**Q.** And the “tail-flick latency at low doses” value (Sprague-Dawley rats [1]; doses inferior to 3 nmol/kg i.t. (data not shown))?
**A.** no apparent increase in latency

**Q.** What about the “antinociceptive effect compared with the other tested compounds” value (Sprague-Dawley rats [1]; equimolar doses (61 nmol/kg i.t.)) of the same compound?
**A.** highest antinociceptive effect

**Q.** What about the “ED50, tail-flick test” value (Sprague-Dawley rats [1]; i.t.) of the same compound?
**A.** 8.14 nmol/kg

**Q.** And the “tail-flick latency time compared to saline injection” value (Sprague-Dawley rats [1])?
**A.** significantly increased

**Q.** What about the “MPE plateau at the tested doses” value (Sprague-Dawley rats [1]; tail-flick, 3 to 61 nmol/kg i.t.) of the same compound?
**A.** did not reach a plateau

**Q.** And the “% MPE” value (Sprague-Dawley rats [1]; tail-flick, highest dose i.t.)?
**A.** at least 91%

**Q.** What about the “ED50, formalin test” value (Sprague-Dawley rats [2]; AUC of pain score, acute and inflammatory phases combined, i.t.) of the same compound?
**A.** 30 nmol/kg

**Q.** And the pain score (Sprague-Dawley rats [2]; all tested doses (from 10 nmol/kg) i.t.)?
**A.** significantly decreased

Source: patent publication US12358948B2, “Neurotensinergic agonists and methods of using same preventing or treating pain” (priority 2019, dated 2025)
